Measurements published in ChEMBL document CHEMBL5584341, “Discovery of Potent, Specific, and Orally Available NLRP3 Inflammasome Inhibitors Based on Pyridazine Scaffolds for the Treatment of Septic Shock and Peritonitis” (J Med Chem, 2024).

Tests used:
[1] = Inhibition of IL-1beta release in PMA-differentiated/ LPS and nigericin stimulated human THP-1 cells pretreated with LPS for 3 hrs followed by incubation with compound for 40 mins and later stimulated with nigericin for 40 mins by ELISA; assay type: functional, cell-based
[2] = Inhibition of IL-1beta release in PMA-differentiated/ LPS and nigericin stimulated human THP-1 cells at 0.1 uM pretreated with LPS for 3 hrs followed by incubation with compound for 40 mins and later stimulated with nigericin for 40 mins by ELISA; assay type: functional; details: THP-1, 1.333 h, time 80 min
[3] = Inhibition of IL-1beta release in PMA-differentiated/ LPS and nigericin stimulated human THP-1 cells at 0.5 uM pretreated with LPS for 3 hrs followed by incubation with compound for 40 mins and later stimulated with nigericin for 40 mins by ELISA; assay type: functional; details: THP-1, 1.333 h, time 80 min
hERG (KCNH2) = hERG (KCNH2) (Homo sapiens, UniProt Q12809); assay: Inhibition of human ERG at 20 uM relative to control
[4] = Metabolic stability in human liver microsomes assessed as intrinsic clearance per g protein at 10 uM […] in presence of NADPH by LC-MS/MS analysis; assay type: ADME, Microsome
[5] = Metabolic stability in human liver microsomes assessed as half life at 10 uM […] in presence of NADPH by LC-MS/MS analysis; assay type: ADME, Microsome
Mus musculus = assay: Antiinflammatory activity against LPS induced septic shock in BALB/c mouse assessed as increase in survival rate at 25 mg/kg, ip pretreated for 1 hr followed by LPS stimulation and measured after 72 hrs; assay type: functional; details: time 73 hrs

hERG (KCNH2), sequence (Q12809 whole entry): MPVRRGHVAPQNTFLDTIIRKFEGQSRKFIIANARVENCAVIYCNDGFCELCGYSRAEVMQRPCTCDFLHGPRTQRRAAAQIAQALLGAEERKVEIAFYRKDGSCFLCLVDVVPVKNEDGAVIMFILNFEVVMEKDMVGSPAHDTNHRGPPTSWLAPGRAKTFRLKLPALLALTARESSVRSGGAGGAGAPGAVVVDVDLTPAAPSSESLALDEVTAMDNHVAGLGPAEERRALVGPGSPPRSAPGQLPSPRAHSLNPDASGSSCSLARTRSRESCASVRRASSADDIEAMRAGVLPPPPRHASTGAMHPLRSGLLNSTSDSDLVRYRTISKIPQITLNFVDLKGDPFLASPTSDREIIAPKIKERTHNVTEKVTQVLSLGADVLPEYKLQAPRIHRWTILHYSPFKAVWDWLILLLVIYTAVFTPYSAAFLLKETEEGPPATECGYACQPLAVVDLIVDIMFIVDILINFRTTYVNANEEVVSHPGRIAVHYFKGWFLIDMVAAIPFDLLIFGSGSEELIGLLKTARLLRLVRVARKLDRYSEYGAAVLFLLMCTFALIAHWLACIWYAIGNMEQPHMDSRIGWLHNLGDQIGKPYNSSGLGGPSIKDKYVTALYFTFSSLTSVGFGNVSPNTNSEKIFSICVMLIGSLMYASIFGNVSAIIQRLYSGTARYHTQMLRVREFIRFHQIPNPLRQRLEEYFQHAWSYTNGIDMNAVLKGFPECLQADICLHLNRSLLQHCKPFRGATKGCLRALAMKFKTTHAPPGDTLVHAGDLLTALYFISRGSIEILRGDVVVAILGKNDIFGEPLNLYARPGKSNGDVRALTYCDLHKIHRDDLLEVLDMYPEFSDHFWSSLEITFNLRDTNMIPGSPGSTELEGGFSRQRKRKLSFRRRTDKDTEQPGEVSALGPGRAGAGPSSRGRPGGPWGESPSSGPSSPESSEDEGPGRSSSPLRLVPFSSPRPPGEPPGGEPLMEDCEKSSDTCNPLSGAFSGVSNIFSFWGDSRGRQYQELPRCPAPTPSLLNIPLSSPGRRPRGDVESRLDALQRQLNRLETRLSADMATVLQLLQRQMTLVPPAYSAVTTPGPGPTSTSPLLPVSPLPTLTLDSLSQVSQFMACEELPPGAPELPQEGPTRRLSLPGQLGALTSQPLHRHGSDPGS

CCN1CCC[C@@H](Nc2nnc(-c3ccc(C(F)(F)F)cc3O)c3c2C2CCC3C2)C1 (some centres undefined)
IC50 [1]: 27 nM
inhibition at 0.1 µM [2]: 92.5%
inhibition at 0.5 µM [3]: 96.3%

CN1CCC[C@H](Nc2nnc(-c3ccc(C(F)(F)F)cc3O)c3c2C2CCC3C2)C1 (some centres undefined)
inhibition at 0.1 µM [2]: 5.31%
inhibition at 0.5 µM [3]: 3.09%

Oc1c(-c2nnc(N[C@@H]3CCCC[C@H]3O)c3c2C2CCC3CC2)ccc2occc12
inhibition at 20 µM (hERG (KCNH2)): 60%
IC50 [1]: 6 nM
inhibition at 0.1 µM [2]: 94.9%
intrinsic clearance [4]: < 12 mL/min
half-life at 10 µM [5]: > 2 h
inhibition at 0.5 µM [3]: 96.3%

Oc1c(-c2nnc(N[C@@H]3CCCN(C4CC(F)(F)C4)C3)c3c2C2CCC3CC2)ccc2occc12
inhibition at 20 µM (hERG (KCNH2)): -1.03%
IC50 [1]: 2 nM
inhibition at 0.1 µM [2]: 98.5%
intrinsic clearance [4]: 31 mL/min
half-life at 10 µM [5]: 0.745 h
inhibition at 0.5 µM [3]: 98.6%

CC(C)(O)c1coc(S(=O)(=O)NC(=O)Nc2c3c(cc4c2CCC4)CCC3)c1
Activity (Mus musculus): 60%
IC50 [1]: 8 nM
inhibition at 0.1 µM [2]: 99.2%
inhibition at 0.5 µM [3]: 99.3%

Oc1cc(C(F)(F)F)ccc1-c1nnc(N[C@@H]2CCCN(C3CCOC3)C2)c2c1C1CCC2CC1 (some centres undefined)
IC50 [1]: 49 nM
inhibition at 0.1 µM [2]: 95.2%
inhibition at 0.5 µM [3]: 96.8%

Oc1cc(C(F)(F)F)ccc1-c1nnc(N[C@@H]2CCCN(C3CCC3)C2)c2c1C1CCC2CC1
IC50 [1]: 27 nM
inhibition at 0.1 µM [2]: 96.8%
inhibition at 0.5 µM [3]: 97.1%

CN1CC[C@@H](Nc2nnc(-c3ccc(C(F)(F)F)cc3O)c3c2C2CCC3C2)C1 (some centres undefined)
inhibition at 0.1 µM [2]: 12.1%
inhibition at 0.5 µM [3]: 32.7%

Cc1ccc(-c2nnc(N[C@@H]3CCCN(C4CC(F)(F)C4)C3)c3c2C2CCC3CC2)c(O)c1
inhibition at 20 µM (hERG (KCNH2)): 63.8%
IC50 [1]: 53 nM
inhibition at 0.1 µM [2]: 60.2%
inhibition at 0.5 µM [3]: 96.6%

[2H]C([2H])([2H])C([2H])([2H])N1CCC[C@@H](Nc2nnc(-c3ccc4occc4c3O)c3c2C2CCC3CC2)C1
inhibition at 20 µM (hERG (KCNH2)): 85.8%
IC50 [1]: 1 nM
inhibition at 0.1 µM [2]: 98.6%
intrinsic clearance [4]: < 12 mL/min
half-life at 10 µM [5]: > 2 h
inhibition at 0.5 µM [3]: 98.5%

Oc1cc(C(F)(F)F)ccc1-c1nnc(N[C@@H]2CCCC[C@H]2O)c2ccccc12
inhibition at 20 µM (hERG (KCNH2)): 86%
IC50 [1]: 9 nM
inhibition at 0.1 µM [2]: 98.3%
inhibition at 0.5 µM [3]: 97.8%

Oc1cc(C(F)(F)F)ccc1-c1nnc(N[C@@H]2CCCN(C3COC3)C2)c2c1C1CCC2CC1
inhibition at 0.1 µM [2]: 52.9%
inhibition at 0.5 µM [3]: 96.5%

Oc1cc(Cl)ccc1-c1nnc(N[C@@H]2CCCN(C3CC(F)(F)C3)C2)c2c1C1CCC2CC1
inhibition at 20 µM (hERG (KCNH2)): 23.9%
IC50 [1]: 26 nM
inhibition at 0.1 µM [2]: 88%
inhibition at 0.5 µM [3]: 95.3%

Oc1cc(C(F)(F)F)ccc1-c1nnc(N[C@@H]2CCCN(C3CCC3)C2)c2c1C1CCC2C1 (some centres undefined)
IC50 [1]: 49 nM
inhibition at 0.1 µM [2]: 94.6%
inhibition at 0.5 µM [3]: 97.2%

Oc1cc(C(F)(F)F)ccc1-c1nnc(N[C@@H]2CCCN(CC3CC3)C2)c2c1C1CCC2C1 (some centres undefined)
IC50 [1]: 87 nM
inhibition at 0.1 µM [2]: 83.9%
inhibition at 0.5 µM [3]: 97.2%

Oc1cc(C(F)(F)F)ccc1-c1nnc(N[C@@H]2CCCN(C3CC(F)(F)C3)C2)c2c1C1CCC2CC1
inhibition at 20 µM (hERG (KCNH2)): 15.5%
IC50 [1]: 25 nM
inhibition at 0.1 µM [2]: 96.3%
inhibition at 0.5 µM [3]: 97.4%

CN1CCO[C@H](CNc2nnc(-c3ccc4occc4c3O)c3c2C2CCC3CC2)C1
inhibition at 0.1 µM [2]: 9.42%
inhibition at 0.5 µM [3]: 36.5%

Oc1cc(C(F)(F)F)ccc1-c1nnc(N[C@@H]2CCCC[C@H]2O)c2c1CCCC2
inhibition at 20 µM (hERG (KCNH2)): 84.1%
IC50 [1]: 6 nM
inhibition at 0.1 µM [2]: 92.4%
inhibition at 0.5 µM [3]: 98.3%

CC(C)(F)CN1CCC[C@@H](Nc2nnc(-c3ccc(C(F)(F)F)cc3O)c3c2C2CCC3CC2)C1
inhibition at 0.1 µM [2]: 55.4%
inhibition at 0.5 µM [3]: 95.8%

CC(CO)N1CCC[C@@H](Nc2nnc(-c3ccc4occc4c3O)c3c2C2CCC3CC2)C1 (some centres undefined)
inhibition at 20 µM (hERG (KCNH2)): 71%
IC50 [1]: 4 nM
inhibition at 0.1 µM [2]: 98.8%
intrinsic clearance [4]: < 12 mL/min
half-life at 10 µM [5]: > 2 h
inhibition at 0.5 µM [3]: 99%

CN1CCC[C@@H](Nc2nnc(-c3ccc(C(F)(F)F)cc3O)c3c2C2CCC3CC2)C1
IC50 [1]: 38 nM
inhibition at 0.1 µM [2]: 97%
inhibition at 0.5 µM [3]: 97.4%

CN1C[C@H](Nc2nnc(-c3ccc4occc4c3O)c3c2C2CCC3CC2)CC(F)(F)C1
inhibition at 0.1 µM [2]: 55.5%
inhibition at 0.5 µM [3]: 97.7%

N#CCN1CCC[C@@H](Nc2nnc(-c3ccc(C(F)(F)F)cc3O)c3c2C2CCC3C2)C1 (some centres undefined)
inhibition at 0.1 µM [2]: 7.6%
inhibition at 0.5 µM [3]: 77%

Oc1cc(C(F)(F)F)ccc1-c1nnc(N[C@@H]2CCCN(CC(F)F)C2)c2c1C1CCC2CC1
inhibition at 0.1 µM [2]: 19.7%
inhibition at 0.5 µM [3]: 73.8%

Cc1c(N[C@@H]2CCCC[C@H]2O)nnc(-c2ccc(C(F)(F)F)cc2O)c1C
IC50 [1]: 12 nM
inhibition at 0.1 µM [2]: 97.8%
inhibition at 0.5 µM [3]: 98.3%

Oc1cc(C(F)(F)F)ccc1-c1nnc(N[C@@H]2CCCC[C@H]2O)c2c1C1CCC2CC1
inhibition at 20 µM (hERG (KCNH2)): -1.93%
IC50 [1]: 124 nM
inhibition at 0.1 µM [2]: 35.9%
inhibition at 0.5 µM [3]: 85.8%

Oc1cc(C(F)(F)F)ccc1-c1nnc(N[C@@H]2CCCN(C3CC(F)(F)C3)C2)c2c1C1CCC2C1 (some centres undefined)
IC50 [1]: 76 nM
inhibition at 0.1 µM [2]: 72.8%
inhibition at 0.5 µM [3]: 96.3%

OCCN1CCC[C@@H](Nc2nnc(-c3ccc(C(F)(F)F)cc3O)c3c2C2CCC3CC2)C1
IC50 [1]: 42 nM
inhibition at 0.1 µM [2]: 98.6%
inhibition at 0.5 µM [3]: 99.2%

CN1CCC[C@@H](Nc2nnc(-c3ccc(C(F)(F)F)cc3O)c3c2C2CCC3C2)C1 (some centres undefined)
IC50 [1]: 38 nM
inhibition at 0.1 µM [2]: 95%
inhibition at 0.5 µM [3]: 96.9%

CCN1CCC[C@@H](Nc2nnc(-c3ccc4occc4c3O)c3c2C2CCC3CC2)C1
inhibition at 20 µM (hERG (KCNH2)): 85.3%
IC50 [1]: 1 nM
inhibition at 0.1 µM [2]: 98.6%
intrinsic clearance [4]: < 12 mL/min
half-life at 10 µM [5]: > 2 h
inhibition at 0.5 µM [3]: 98.3%

CN1C[C@H](F)C[C@@H](Nc2nnc(-c3ccc4occc4c3O)c3c2C2CCC3CC2)C1
inhibition at 20 µM (hERG (KCNH2)): 78.5%
IC50 [1]: 5 nM
inhibition at 0.1 µM [2]: 98.6%
intrinsic clearance [4]: < 12 mL/min
half-life at 10 µM [5]: > 2 h
inhibition at 0.5 µM [3]: 98.6%

Oc1c(-c2nnc(N[C@@H]3CCC[C@H](O)C3)c3c2C2CCC3CC2)ccc2occc12
inhibition at 20 µM (hERG (KCNH2)): 59%
IC50 [1]: 4 nM
inhibition at 0.1 µM [2]: 97.2%
intrinsic clearance [4]: 20 mL/min
half-life at 10 µM [5]: 1.16 h
inhibition at 0.5 µM [3]: 98.2%

Oc1c(-c2nnc(N[C@@H]3CCOC3)c3c2C2CCC3CC2)ccc2occc12
inhibition at 0.1 µM [2]: 25%
inhibition at 0.5 µM [3]: 30%

CC(F)(F)CN1CCC[C@@H](Nc2nnc(-c3ccc(C(F)(F)F)cc3O)c3c2C2CCC3CC2)C1
inhibition at 0.1 µM [2]: 29%
inhibition at 0.5 µM [3]: 49.9%

N#Cc1ccc(-c2nnc(N[C@@H]3CCCN(C4CC(F)(F)C4)C3)c3c2C2CCC3CC2)c(O)c1
inhibition at 0.1 µM [2]: 51.7%
inhibition at 0.5 µM [3]: 91.5%

Oc1cc(OC(F)(F)F)ccc1-c1nnc(N[C@@H]2CCCN(C3CC(F)(F)C3)C2)c2c1C1CCC2CC1
inhibition at 0.1 µM [2]: 46.5%
inhibition at 0.5 µM [3]: 93.2%

OC[C@@H](O)CNc1nnc(-c2ccc(C(F)(F)F)cc2O)c2c1C1CCC2CC1
inhibition at 0.1 µM [2]: 20.3%
inhibition at 0.5 µM [3]: 74.5%

Oc1cc(C(F)(F)F)ccc1-c1nnc(N[C@@H]2CCCC[C@H]2O)c2c1C1CCC2C1 (some centres undefined)
inhibition at 20 µM (hERG (KCNH2)): 57.7%
IC50 [1]: 79 nM
inhibition at 0.1 µM [2]: 43.5%
inhibition at 0.5 µM [3]: 95.6%

Oc1cc(C(F)(F)F)ccc1-c1nnc(N[C@@H]2CCCNC2)c2c1C1CCC2CC1
IC50 [1]: 103 nM
inhibition at 0.1 µM [2]: 46.5%
inhibition at 0.5 µM [3]: 94.3%

Oc1cc(C(F)(F)F)ccc1-c1nnc(N[C@@H]2CCC[C@H](O)C2)c2c1C1CCC2CC1
inhibition at 0.1 µM [2]: 45%
inhibition at 0.5 µM [3]: 90.8%

Oc1c(-c2nnc(N[C@@H]3CCCN(C4CC(F)(F)C4)C3)c3c2C2CCC3CC2)ccc2sccc12
inhibition at 20 µM (hERG (KCNH2)): 69.4%
IC50 [1]: 57 nM
inhibition at 0.1 µM [2]: 61.9%
inhibition at 0.5 µM [3]: 96.9%
